Experimental data as given in patent US20230061201A1, “COMPOSITION FOR PREVENTING OR TREATING CHRONIC OBSTRUCTIVE PULMONARYDISEASE COMPRISING REGORAFENIB AS ACTIVE INGREDIENT” (Chungbuk National University Industry-Academic Cooperation …, priority 2021, published 2023).

Key:
Assay type in all cases: in vivo, C57BL/6 mice
[1] = system: mouse animal model with emphysema induced by porcine pancreatic elastase (PPE); assay: Lung function (flexiVent) in PPE-induced emphysema mice; settings: regorafenib 5 mg/kg oral for one week from two weeks after PPE 5U nasal; flexiVent on week 3
Text: In addition, the present inventors performed an experiment to determine whether regorafenib is able to restore lost function of damaged lungs in order to confirm whether regorafenib is able to treat chronic obstructive pulmonary disease.
Specifically, 6-week-old C57BL/6 mice were purchased and acclimatized for one week, after which the acclimatized 7-week-old mice (average 25 g) were subjected to nasal administration with saline and PPE [elastase from porcine pancreas] (EPC, EC134) at a concentration of 5U. Two weeks after administration, the mice were orally administered with 200 µl of regorafenib (SelleckChem, BAY 73-4506) at a concentration of 5 mg/kg for one week. Then, the mice were anesthetized using 300 µl of anesthetic on week 3, after which the lung function of each mouse was measured using a flexiVent (system for measuring the function of lungs) and quantified by subtracting the error value therefrom.

[2] = system: mouse animal model with emphysema induced by porcine pancreatic elastase (PPE); assay: Alveolar size (mean linear intercept, Lm) in PPE-induced emphysema mice; settings: regorafenib 5 mg/kg oral for one week from two weeks after PPE 5U nasal; lungs on week 3, H&E
Text: One of the pathological indicators of chronic obstructive pulmonary disease is changed alveolar size. Changes in the alveolar size can be analyzed by quantifying the mean linear intercept (Lm) value, representing the average distance between the alveolar walls, in a microscopic field of view. When chronic obstructive pulmonary disease is induced, this value increases, indicating an increase in the alveolar size.
Therefore, the present inventors analyzed whether it is possible to alleviate changes in lung structure by measuring the change in Lm value due to treatment with regorafenib in a mouse animal model with emphysema, a chronic obstructive pulmonary disease, prepared over three weeks through administration of PPE (FIG. 2A).
Specifically, 6-week-old C57BL/6 mice were acclimatized for one week, after which the acclimatized 7-week-old mice (average 25 g) were subjected to nasal administration with saline and PPE [elastase from porcine pancreas] (EPC, EC134) at a concentration of 5U. […] The prepared block was cut using a sectioning machine, attached to a slide, subjected to H&E staining, and then quantified by measuring the Lm value based on microscopic images.

[3] = system: mouse animal model with emphysema induced by porcine pancreatic elastase (PPE); assay: Immune cells in bronchoalveolar lavage fluid of PPE-induced emphysema mice; settings: BAL fluid day 4
Text: The present inventors performed an experiment to determine whether regorafenib has activity capable of treating chronic obstructive pulmonary disease. The initial response induced by PPE (porcine pancreatic elastase) representatively includes immune responses that occur in damaged lung tissue. The activated immune response promotes the proliferation of various immune cells and the secretion of various inflammatory mediators. Specifically, the overall number of immune cells increases with an increase in individual immune cells involved in the immune response. In particular, an increase in the numbers of macrophages, lymphocytes, eosinophils, and neutrophils is observed. The increase in the number of these cells can be confirmed through a bronchoalveolar lavage (BAL) fluid test.
Therefore, in the present invention, mice with chronic obstructive pulmonary disease, particularly emphysema, in which alveolar damage was induced by reducing elastin content using PPE, were prepared and then treated with regorafenib to thus analyze whether chronic obstructive pulmonary disease was ameliorated. Specifically, 6-week-old C57BL/6 mice were purchased and acclimatized for one week. Thereafter, the acclimatized 7-week-old mice (average 25 g) were orally administered with 200 µl of regorafenib (SelleckChem, BAY 73-4506) at a concentration of 5 mg/kg. […] The stained slide was analyzed and quantified using a microscope.
According to the method described above, a mouse animal model of chronic obstructive pulmonary disease was prepared by administering the mouse lungs with 5U of PPE, and in order to verify whether the immune response was modulated, one day before administration of PPE and on days 2 and 3 after administration of PPE, regorafenib (5 mg/kg) was administered thereto, and on day 4, bronchoalveolar lavage fluid was obtained and the immune cells therein were stained to thus quantitatively analyze the type of immune cells and the number of individual cells. […]

CNC(=O)c1cc(Oc2ccc(NC(=O)Nc3ccc(Cl)c(C(F)(F)F)c3)c(F)c2)ccn1 [regorafenib]
lung function indicators [1]: restored
decrease of Lm value compared to the PPE treatment group [2]: about 50%
numbers of eosinophils ([3]; regorafenib 5 mg/kg oral): significantly decreased
numbers of neutrophils ([3]; regorafenib 5 mg/kg oral): significantly decreased
decrease of the number of immune cells increased due to PPE ([3]; regorafenib 5 mg/kg oral one day before and on days 2 and 3 after PPE 5U nasal): about 50%
